63 molecules from PubChem BioAssay AID743417 (Broad Institute, 2014) can be followed below.

Inconclusive results are not listed. Calls of active or inactive are those of the source.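 The calls were made as follows: active = compounds lowering the luciferase signal with a fitted half-maximal dose at most twice their top valid dose (cut at about 30 µM in these data); inconclusive = flat fits with moderate signal loss, or poor fits; inactive = the rest.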

This experiment has as its system Clone20 osteoblast Shn3 3'UTR firefly luciferase, 24 h. The experiment can be described thus: Schnurri-3 3'UTR-luciferase signal suppressors – cell-based, Clone20 osteoblasts, luminescence, dry powder, set 2, dose response (AID 743417).
For the molecule `O=C1C=C(N2CCOCC2)c2ccccc2C1=O`, the half-maximal activity concentration (AC50) is 7.16 µM. As for `C=C1C(=O)[C@]23C[C@H]1CCC2[C@@]1(C)C(C[C@@H]3O)[C@](C)(C(=O)OC)CC[C@@H]1OC(C)=O` (stereo partly drawn), the AC50 is 2.14 µM.

In the case of `CC(=O)OC[C@]12CC[C@H]3[C@@](C)(CC[C@H]4C(C)(C)CCC[C@]34C)[C@@H]1CC(C1=CC(=O)OC1O)O2` (stereo partly drawn), the AC50 was 0.634 µM.

Turning to `O=C(/C=C/c1ccc(F)cc1)NC(=S)NNC(=O)c1cnccn1`, the AC50 was 1.39 µM. On to `O=C(NNC(=S)Nc1ccc(Cl)c(Cl)c1)c1ccccn1`, for which the half-maximal activity concentration (AC50) is 2.33 µM. On to `CCCOc1ccccc1N/C(=N/c1nc(C)cc(C)n1)NC(=O)COc1ccc(OC)cc1`, for which the AC50 was 3.24 µM. As to `CCN(CCCl)c1cc(CN(C)C)cc(NC(=O)c2ccc(C(=O)Nc3cc(CN(C)C)cc(N(CC)CCCl)c3)cc2)c1`, the half-maximal activity concentration (AC50) was 2.65 µM.

`O=C(Nc1ccc(N2CCN(C(=O)c3ccco3)CC2)c(Cl)c1)c1cc2ccccc2o1`: the AC50 was 5 µM. The figure for `CCN1CCN(Cc2ccc(NC(=O)c3ccc(C)c(NC(=O)C(=O)c4c[nH]c5ccccc45)c3)cc2C(F)(F)F)CC1` is 7.49 µM. On to `Cn1nc(-c2ccc(OCC(=O)N3CCN(Cc4ccccc4)CC3)cc2)c2ccccc2c1=O`, for which the AC50 is 2.1 µM. The figure for `CC[C@@H](C(=O)[C@@H](C)[C@@H](O)[C@H](C)CCc1ccc(C)c(O)c1C(=O)O)[C@H]1O[C@](CC)([C@H]2CC[C@](O)(CC)[C@H](C)O2)C[C@@H]1C` is 7.93 µM. As to `COc1ccc(NC(=O)c2sc3ncnc(N4CCN(c5ccccn5)CC4)c3c2C)cc1Cl`, the half-maximal activity concentration (AC50) is 4.08 µM. For `O=C(Nc1cc2c3c(c1)C1CCCC1CN3CC1CCCC21)c1ccc([N+](=O)[O-])cc1` (stereo not drawn), the half-maximal activity concentration (AC50) was 2.2 µM. Regarding `O=C(Oc1c(CN2CCOCC2)cc(Cl)c2cccnc12)c1ccccc1Cl`, the concentration at half-maximal activity (AC50) was 4.59 µM. Consider `O=C(NCc1ccccc1C(F)(F)F)c1cccc2c1C(=O)c1ccc(N3CCC(N4CCCCC4)CC3)cc1S2(=O)=O`, for which the AC50 was 21.2 µM.

With `CC(=O)c1c(C)[nH]c(C(=O)COc2cc(C)ccc2C(C)C)c1C`, the AC50 is 1.25 µM. For `Nc1nc(N)c2cc(CNc3ccc(Cl)c(Cl)c3)ccc2n1`, the AC50 is 0.956 µM. `O=C(OCC12CC3CC(CC(C3)C1)C2)c1ccc(NCc2cc(O)ccc2O)cc1`: the AC50 was 3.25 µM. `Cc1ccc(C)c(S(=O)(=O)N2CCN(c3ncnc4sccc34)CC2)c1`: the half-maximal activity concentration (AC50) is 0.631 µM. With `Fc1ccc2[nH]c3c(N4CCN(c5ccccc5)CC4)ncnc3c2c1`, the AC50 is 3.78 µM.

As to `Oc1c(CN2CCN(c3ccc(F)cc3)CC2)cc(Cl)c2cccnc12`, the concentration at half-maximal activity (AC50) is 1.32 µM.

Consider `COc1ccccc1OCC(=O)c1[nH]c(C)c(C(C)=O)c1C`, for which the AC50 was 3.35 µM. Turning to `CCC(C)[C@H]1CNC(=S)N1CCc1cc(C(F)(F)F)cc(C(F)(F)F)c1` (stereo partly drawn), the AC50 was 21.6 µM. The figure for `COc1ccc(OC)c2sc(N(CCN(C)C)C(=O)/C=C/c3cccs3)nc12` is 12.7 µM; for `COc1ccc(NC(=O)COc2ccc(N(C)S(=O)(=O)c3ccc(Cl)cc3)cc2)cc1OC` it is 1.35 µM. The figure for `Cc1cc(/C=C2/SC(=S)N(c3cccc(Cl)c3)C2=O)c(C)n1-c1cccnc1` is 0.979 µM. For the molecule `CCc1nnc(NC(=O)c2nc(S(=O)(=O)Cc3cccc(C)c3)ncc2Cl)s1`, the concentration at half-maximal activity (AC50) was 2.51 µM. In the case of `CCN(CC)S(=O)(=O)c1ccc(-c2ccc(S(=O)(=O)N(CC)CC)cc2)cc1`, the AC50 was 3.81 µM. On to `CCCCNc1c(-c2ccc(OC)c(SC3CCCCC3)c2)nc2ccc(C)cn12`, for which the AC50 is 3.68 µM.

For `Cc1nc2ccccc2n1Cc1ccc(Cl)cc1`, the AC50 is 1.46 µM. In the case of `COC(=O)c1ccc(COC(=O)c2[nH]c(C)c(C(C)=O)c2C)o1`, the AC50 is 2.58 µM. Take `COc1ccc([C@H]2CC(=O)C=C(c3ccc(F)cc3OCc3ccccc3)C2)cc1OC`: the AC50 is 7.36 µM. The figure for `CCCCC(=O)NC(c1ccc(Cl)cc1)c1ccc2cccnc2c1O` (stereo not drawn) is 0.772 µM; for `O=C(CSc1ccccn1)Nc1nonc1[N+](=O)[O-]` it is 5 µM; for `CC(=O)N1CCN(c2ccc(NC(=O)c3ccc([N+](=O)[O-])o3)cc2Cl)CC1` it is 1.08 µM. For `CCOC(=O)C1(Cc2cccc(OC)c2)CCN(C/C=C/c2ccc(OC)cc2)CC1`, the AC50 is 4.75 µM.

Consider `COCCn1c(SCC(=O)/C=C2\N(C)c3ccccc3C2(C)C)nnc1-c1ccncc1`, for which the AC50 is 2.65 µM. On to `CN1CCN(S(=O)(=O)c2ccc(Sc3nnnn3-c3ccccc3)c([N+](=O)[O-])c2)CC1`, for which the AC50 was 3.9 µM.

As for `O=C(Nc1nc(-c2ccccc2)cs1)c1ccc(N2CCOCC2)c([N+](=O)[O-])c1`, the AC50 was 3.75 µM.

On to `COc1cccc(CNc2nc(NCC3CC3)nc3ccsc23)c1`, for which the concentration at half-maximal activity (AC50) is 5.86 µM. Regarding `CC(=O)c1cccc(NS(=O)(=O)c2ccc(N/C=C\C(=O)c3ccc(C)cc3)cc2)c1`, the concentration at half-maximal activity (AC50) is 1.51 µM.

Consider `CCC(=O)c1ccc(OCC(O)Cn2c(C)nc3ccccc32)cc1` (stereo not drawn), for which the AC50 is 2.28 µM.

On to `Cc1cccc(C(=O)Nc2ccc(C(=O)/C=C/c3ccncc3)cc2)c1`, for which the concentration at half-maximal activity (AC50) is 3.41 µM. In the case of `Cc1ccc(CC(=O)Nc2ccncc2)cc1` it was 2.39 µM.

For the molecule `C=C1C(=O)OC2C=C(CO)C3OC3C3OC3(C)CC(OC(=O)/C(=C/C)COC(C)=O)C12` (stereo not drawn), the AC50 was 5.89 µM. For the molecule `COc1ccc(-c2nc(-c3ccccn3)no2)cc1`, the half-maximal activity concentration (AC50) was 1.92 µM. Consider `O=C(/C=C/c1ccccc1)NC(NC(=S)Nc1ccc(Cl)cc1)C(Cl)(Cl)Cl` (stereo not drawn), for which the AC50 was 5.13 µM. For `CC1CN(C(=O)CCc2cc(C(C)(C)C)c(O)c(C(C)(C)C)c2)CC(C)O1` (stereo not drawn), the AC50 is 2.56 µM. The figure for `C[C@@H]1CCCCO[C@H](CN(C)Cc2ccccc2)[C@@H](C)CN([C@H](C)CO)C(=O)c2cc(NC(=O)c3ccccc3)ccc2O1` is 31.3 µM; for `C[C@H](O)C#Cc1ccc2c(c1)O[C@@H](CN(C)Cc1ccc(-c3ccccc3)cc1)[C@H](C)CN([C@@H](C)CO)S2(=O)=O` it is 10.3 µM.

Turning to `COc1cc(C(=O)NC2CCCc3c2cnn3-c2ccccc2F)cc(OC)c1OC` (stereo not drawn), the AC50 was 0.781 µM. On to `CCOC(=O)C1CCCN(C(=O)Cn2sc3nc(C)cc(C)c3c2=O)C1` (stereo not drawn), for which the concentration at half-maximal activity (AC50) is 12.5 µM. Consider `CCC(C)c1ccc(S(=O)(=O)N2CCN(C(=O)c3ccc(Cl)c(S(=O)(=O)N4CCOCC4)c3)CC2)cc1` (stereo not drawn), for which the AC50 was 5.32 µM. As for `Cc1cc2nc(C)n(CCCNC(=O)Nc3cccc4ccccc34)c2cc1C`, the AC50 was 3.19 µM. As to `COc1ccc(S(=O)(=O)N2CCN(c3cc(-c4ccccc4)nc4ncnn34)CC2)cc1`, the half-maximal activity concentration (AC50) is 3.89 µM. As to `CCN(CC)c1ccc(/C=C2/SC(=O)N(C(C)C)C2=O)o1`, the AC50 was 3.46 µM. `COc1ccc(NS(=O)(=O)c2ccc(NC(=O)C(CCSC)NC(N)=O)cc2)cc1` (stereo not drawn): the AC50 is > 70 µM (inactive). With `COc1ccc(OCC(O)CNCCOc2ccccc2OC)c(C(C)(C)C)c1` (stereo not drawn), the AC50 is 11.6 µM.

`O=C(Cc1ccc(Cl)cc1)Nc1ccc(N2CCN(C(=O)c3ccco3)CC2)cc1`: the AC50 was > 70 µM (inactive). On to `CCOc1ccc(OCc2cccc(C(=O)O)c2)cc1`, for which the concentration at half-maximal activity (AC50) was 0.649 µM. In the case of `CCCCCn1c(=N)n(CC(O)COc2ccccc2OC)c2ccccc21` (stereo not drawn) it was 2.12 µM.

Consider `CCOC(=O)N1CCN(CC(c2ccccc2)c2ccccc2)CC1`, for which the half-maximal activity concentration (AC50) is 14.1 µM. In the case of `COc1ccccc1NS(=O)(=O)c1cc(NC(=O)c2ccc(Cl)nc2)ccc1Cl` it was 3.12 µM.
